“And” between values parts separate entries of the source, which are not always exact repeats. Equal entries are not always repeated.
Test system: 885512-296-R-J2-PDC complex spheroid growth, % test/control
Test: Anticancer human tumor 885512-296-R-J2-PDC patient-derived breast carcinoma cell line growth inhibition [AhR]
Conditions: for viability, T/C: stronger effect = lower value
Source text: Multicellular complex tumor spheroid response to aryl hydrocarbon receptor antagonists in combination with a variety of drugs and investigational agents in selected tumor cell lines
The current study was undertaken to assess response to aryl hydrocarbon receptor antagonists in combination with standard-of-care drugs and investigational agents in solid tumor complex spheroid models. Complex spheroids include a stromal component modeled by human endothelial cells (HUVEC) and fibroblasts modeled by human mesenchymal stem cells (MSCs). The concentration ranges selected for each drug and investigational agent were based upon clinically achievable concentrations if the clinical Cmax of the agent was known.
Compounds. The drugs and investigational agents: BAY 2416964 (NSC825713), GNF351 (NSC835774), CH-223191 (NSC835775), CPI-455 (NSC825282), aza-TdCyd (NSC777586), decitabine (NSC127716), belinostat (NSC758774), entinostat (NSC756642), pevonedistat (NSC761192), tazemetostat (NSC777109), talazoparib (NSC765396), olaparib (NSC753686), selinexor (NSC780203), nedisertib (M3814, NSC802822), bortezomib (NSC756655), venetoclax (NSC766270), doxorubicin (NSC123127), elimusertib (BAY189344, NSC800525), ceralasertib (AZD6738, NSC777638), TAK-243 (NSC785004), alisertib (NSC759677), etoposide (NSC141540), topotecan (NSC609699), eribulin (NSC707389), gemcitabine (NSC613327), carboplatin (NSC241240), cisplatin (NSC119875), and SN-38 (NSC673596) were obtained from the National Cancer Institute (NCI) Developmental Therapeutics Program Chemical Repository (32). The FDA-approved anticancer drug set is available from the Developmental Therapeutics Program at https://dtp.cancer.gov/organization/dscb/obtaining/available plates.htm. […] The stock solutions were prepared in dimethyl sulfoxide (DMSO, Sigma-Aldrich, St. Louis, MO, cat. D2650), except for the platinum compounds which were prepared in saline (Quality Biological, Gaithersburg, MD, cat. 114-055-101), at 800-fold the tested concentration and stored at -70 degrees C prior to their use. All drugs and investigational agents were tested over a range starting from a high concentration at or near the clinical Cmax and decreasing in half-log increments. If the clinical Cmax for an agent had not been determined, the highest concentration tested was 10 microM (Table 1).
Cell Culture. All cells were maintained in an incubator at 37 degrees C and 5% CO2 with 95% humidity. The PDC lines were cultured according to standard operating procedures established by the NCI PDMR (https://pdmr.cancer.gov). Briefly, all PDCs were thawed and cultured in Matrigel-coated flasks prepared with a working solution of 1X Ham's F-12 nutrient mix, without supplementation (Invitrogen, Waltham, MA, cat. 11765054), 100 U/mL penicillin-streptomycin (Invitrogen, cat. 15140122), and 2.5% Matrigel (Corning Inc., Corning, NY, cat. 354248) for the first three passages. All PDCs were cultured in complete DMEM/F-12 media containing advanced DMEM/F-12 (Invitrogen, cat. 12634028), 4.9% defined fetal bovine serum, heat inactivated (HyClone Laboratories Inc., Logan, UT, cat. SH30070.03HI), 389 ng/mL hydrocortisone (Sigma-Aldrich, cat. H4001), 9.7 ng/mL human EGF recombinant protein (Invitrogen, cat. PHG0313), 23.4 microg/mL adenine (Sigma-Aldrich, cat. A2786), 97.3 U/mL penicillin-streptomycin (Invitrogen, cat. 15140122), 1.9 mM L-glutamine (Invitrogen, cat. 25030081), and 9.7 microM Y-27632 dihydrochloride (Tocris Bioscience, Bristol, United Kingdom, cat. 1254). The PDCs were cultured in complete DMEM/F12 media without 10 microM Y-27632 dihydrochloride for at least two passages prior to the screen. The established cell lines NCI-H1341 and […] were cultured in DMEM/F-12, HEPES (Invitrogen, cat. 11330032), 5% defined fetal bovine serum (HyClone Laboratories Inc., cat. SH30070.03), ITS premix universal culture supplement [insulin (5 microg/mL), transferrin (5 microg/mL), and selenious acid (5 ng/mL)] […]

[1] = curve of first compound, second compound 0.1 µM
[2] = curve of first compound, second compound 0.316 µM
[3] = curve of first compound, second compound 1 µM
[4] = curve of first compound, second compound 3.16 µM
[5] = curve of first compound, second compound 10 µM
[6] = second compound 0.1 µM, first compound 0.0316 µM
[7] = second compound 0.1 µM, first compound 0.1 µM
[8] = second compound 0.1 µM, first compound 0.316 µM
[9] = second compound 0.1 µM, first compound 1 µM
[10] = second compound 0.1 µM, first compound 3.16 µM
[11] = second compound 0.1 µM, first compound 10 µM
[12] = second compound 0.316 µM, first compound 0.0316 µM
[13] = second compound 0.316 µM, first compound 0.1 µM
[14] = second compound 0.316 µM, first compound 0.316 µM
[15] = second compound 0.316 µM, first compound 1 µM
[16] = second compound 0.316 µM, first compound 3.16 µM
[17] = second compound 0.316 µM, first compound 10 µM
[18] = second compound 1 µM, first compound 0.0316 µM
[19] = second compound 1 µM, first compound 0.1 µM
[20] = second compound 1 µM, first compound 0.316 µM
[21] = second compound 1 µM, first compound 1 µM
[22] = second compound 1 µM, first compound 3.16 µM
[23] = second compound 1 µM, first compound 10 µM
[24] = second compound 3.16 µM, first compound 0.0316 µM
[25] = second compound 3.16 µM, first compound 0.1 µM
[26] = second compound 3.16 µM, first compound 0.316 µM
[27] = second compound 3.16 µM, first compound 1 µM
[28] = second compound 3.16 µM, first compound 3.16 µM
[29] = second compound 3.16 µM, first compound 10 µM
[30] = second compound 10 µM, first compound 0.0316 µM
[31] = second compound 10 µM, first compound 0.1 µM
[32] = second compound 10 µM, first compound 0.316 µM
[33] = second compound 10 µM, first compound 1 µM
[34] = second compound 10 µM, first compound 3.16 µM
[35] = second compound 10 µM, first compound 10 µM
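Further: spheroids exposed to compounds for seven days.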

| Compound | IC50 [1] [µM] | IC50 [2] [µM] | IC50 [3] [µM] | IC50 [4] [µM] | IC50 [5] [µM] | viability, T/C [6] [%] | viability, T/C [7] [%] | viability, T/C [8] [%] | viability, T/C [9] [%] | viability, T/C [10] [%] | viability, T/C [11] [%] | viability, T/C [12] [%] | viability, T/C [13] [%] | viability, T/C [14] [%] | viability, T/C [15] [%] | viability, T/C [16] [%] | viability, T/C [17] [%] | viability, T/C [18] [%] | viability, T/C [19] [%] | viability, T/C [20] [%] | also measured |
| --- | --- | --- | --- | --- | --- | --- | --- | --- | --- | --- | --- | --- | --- | --- | --- | --- | --- | --- | --- | --- | --- |
| CC1COCCN1c1cc(C2(S(C)(=N)=O)CC2)nc(-c2ccnc3[nH]ccc23)n1 (centres undefined) + Cc1cncc(-c2nc(NCCc3c[nH]c4ccccc34)c3ncn(C(C)C)c3n2)c1 | 2.28 | 1.95 | 1.51 | 0.282 | < 0.0316 | 99.8 | 102 | 103 | 95 | 32.3 | 4.89 | 99.2 | 99.5 | 97.3 | 81.9 | 26.9 | 6.7 | 86.4 | 86.1 | 82.9 | viability, T/C [21]: 64.7%; viability, T/C [22]: 23.6%; viability, T/C [23]: 4.77%; viability, T/C [24]: 65%; viability, T/C [25]: 55.3%; viability, T/C [26]: 47.7%; viability, T/C [27]: 42.4%; viability, T/C [28]: 20.4%; viability, T/C [29]: 6.04%; viability, T/C [30]: 22.3%; viability, T/C [31]: 22.7%; viability, T/C [32]: 19.9%; viability, T/C [33]: 18.2%; viability, T/C [34]: 12.5%; viability, T/C [35]: 5% |
| O=C(c1cc(Cc2n[nH]c(=O)c3ccccc23)ccc1F)N1CCN(C(=O)C2CC2)CC1 + CC(CO)NC(=O)c1cc(-c2ccc(Cl)cc2)nn(-c2cnn(C)c2)c1=O | 6.93 | 6.97 | 7.14 | 7.14 | 4.62 | 98.1 | 106 | 110 | 137 | 98.1 | 27.5 | 102 | 89.7 | 112 | 121 | 95.5 | 29.2 | 96.4 | 102 | 105 | viability, T/C [21]: 118%; viability, T/C [22]: 104%; viability, T/C [23]: 27.8%; viability, T/C [24]: 94.7%; viability, T/C [25]: 98.4%; viability, T/C [26]: 111%; viability, T/C [27]: 113%; viability, T/C [28]: 91.9%; viability, T/C [29]: 32.5%; viability, T/C [30]: 98.1%; viability, T/C [31]: 96%; viability, T/C [32]: 109%; viability, T/C [33]: 93.6%; viability, T/C [34]: 62.1%; viability, T/C [35]: 25.8% |
| COc1cc(Nc2ncc3c(n2)-c2ccc(Cl)cc2C(c2c(F)cccc2OC)=NC3)ccc1C(=O)O + Cc1ccccc1N=Nc1ccc(NC(=O)c2ccnn2C)c(C)c1 | 4.1 | > 10 | 5.48 | 1.98 | < 0.0316 | 61.3 | 51.4 | 59.2 | 59.2 | 52.2 | 38.9 | 62.9 | 48.8 | 57.8 | 50.6 | 53.5 | 47.6 | 56.8 | 54.8 | 65.9 | viability, T/C [21]: 58.1%; viability, T/C [22]: 46.2%; viability, T/C [23]: 49%; viability, T/C [24]: 51.4%; viability, T/C [25]: 46.6%; viability, T/C [26]: 55%; viability, T/C [27]: 54.4%; viability, T/C [28]: 47.1%; viability, T/C [29]: 43.3%; viability, T/C [30]: 45.6%; viability, T/C [31]: 40.9%; viability, T/C [32]: 40.6%; viability, T/C [33]: 39.6%; viability, T/C [34]: 36.5%; viability, T/C [35]: 37.7% |
| COc1ccc([C@@H](O)c2cc(-c3ncnc4cc(N5CCOCC5)ccc34)c(F)cc2Cl)nn1 + CC(CO)NC(=O)c1cc(-c2ccc(Cl)cc2)nn(-c2cnn(C)c2)c1=O | > 10 | 9.46 | > 10 | > 10 | 4.76 | 85.7 | 97.2 | 91.2 | 90.7 | 73.2 | 50.2 | 94.1 | 92.1 | 82.8 | 86.3 | 63.6 | 49.5 | 103 | 112 | 95.6 | viability, T/C [21]: 91.2%; viability, T/C [22]: 78%; viability, T/C [23]: 51.4%; viability, T/C [24]: 89.6%; viability, T/C [25]: 92.1%; viability, T/C [26]: 91.5%; viability, T/C [27]: 74.2%; viability, T/C [28]: 68.6%; viability, T/C [29]: 51.3%; viability, T/C [30]: 88.1%; viability, T/C [31]: 83.6%; viability, T/C [32]: 83.2%; viability, T/C [33]: 72.1%; viability, T/C [34]: 56.6%; viability, T/C [35]: 38.1% |
| O=C(c1cc(Cc2n[nH]c(=O)c3ccccc23)ccc1F)N1CCN(C(=O)C2CC2)CC1 | – | – | – | – | – | – | – | – | – | – | – | – | – | – | – | – | – | – | – | – | viability, T/C (compound 0.0316 µM): 101% and 131% and 106%; viability, T/C (compound 0.1 µM): 109% and 125% and 105%; viability, T/C (compound 0.316 µM): 133% and 134% and 148%; viability, T/C (compound 1 µM): 141% and 121% and 151%; viability, T/C (compound 3.16 µM): 113% and 81.3% and 93.8%; viability, T/C (compound 10 µM): 34.5% and 20.2% and 30.2%; IC50 (curve of compound): 8.01 µM and 5.7 µM and 6.98 µM |
| CC(C)c1c(-c2ccccc2)nc2c(C#N)c[nH]n2c1=O | – | – | – | – | – | – | – | – | – | – | – | – | – | – | – | – | – | – | – | – | viability, T/C (compound 0.0316 µM): 93.1% and 105% and 113%; viability, T/C (compound 0.1 µM): 103% and 96.8% and 99.5%; viability, T/C (compound 0.316 µM): 107% and 97.7% and 89%; viability, T/C (compound 1 µM): 95.2% and 98.4% and 113%; viability, T/C (compound 3.16 µM): 96.8% and 100% (2×); viability, T/C (compound 10 µM): 90.8% and 92% and 95.9%; IC50 (curve of compound): > 10 µM |

Source: PubChem BioAssay AID1919006 (Molecular Pharmacology Branch, DTP, NCI, 2023)
